Data as given in patent US20070014739A1, “Compositions and methods for controlling biofilms and bacterial infections” (priority 2005, published 2007).
Where “and” joins values, the source holds several entries; their conditions need not be identical. Equal entries are not always repeated.

Assays:
[1] = system: Pseudomonas aeruginosa PA01; experiment: Inhibition of biofilm formation and growth, 96-well plates, crystal violet; assay type: cell-based; conditions: for inhibited biofilm formation of P. aeruginosa PAO1: approximately 10 ug/ml, compared to the controls; for inhibitory effect on the growth of P. aeruginosa PA01: compared to controls
Experimental: An overnight culture of P. aeruginosa PA01 in LB+1% citrate was prepared. It was incubated at 37° C. shaker for 24 hours. A 1:20 dilution of the overnight culture was prepared. Test compounds are diluted appropriately with a volume of ethanol followed by shaking for approximately 5 minutes and then diluted with an appropriate volume of water.
Replicate 96-well plates are prepared, preferably two to four replicates, with appropriately diluted overnight culture and test compound in each well. Preferably, test compounds are prepared at 10 to 30 micrograms per milliliter. On each 96-well plate controls are appropriately prepared with at least one set of controls consisting of overnight culture and ethanol/water diluent and another set of controls consisting of growth media and ethanol/water diluent. Plates are covered with foil at room temperature and shaken for approximately 24 hours.
After shaking absorbance of the wells of the plates are determined, preferably at 630 nanometers. Liquid is than aspirated out of the wells and each well is filled with diluted crystal violet, preferably approximately 250 microliters of a 1:4 dilution, and allowed to stand for approximately 10 minutes. Each well of the plate is washed, preferably four times, with PBS with approximately one minute between each wash. After the final wash is aspirated out, the plate may be turned over onto paper towels to dump out excess PBS. 95% ethanol is added to each well, preferably 250 microliters. Absorbance of each well of a plate is determined, preferably at 540 nm. Preferably slight shaking is performed during the absorbance reading for approximately 5 minutes. Each well of the plate is than diluted […] with ethanol in a separate plate, preferably 145 ul of 95% ethanol and 5 uL from the original plate, and absorbance is determined. Preferably, slight shaking for approximately 3 minutes is performed.
Biofilm inhibition in each well is determined by subtracting the absorbance of the wells with test compounds from wells with controls containing overnight culture subtracting out controls with only media. A typical positive result of biofilm inhibition confirmed with replicates would be 30 percent to 80 percent less biofilm in the wells with test compound compared to the wells with controls of overnight culture.

[2] = system: methicillin-resistant Staphylococcus aureus; conditions: cited from earlier work
[3] = system: P. aeruginosa strain PAO1; experiment: Rotating disk reactor (RDR) biofilm test with and without tobramycin, culturable bacteria; assay type: cell-based, Pseudomonas aeruginosa
Experimental: Biofilm formation of P. aeruginosa was evaluated using a standardized biofilm method with a rotating disk reactor (RDR). This method provides a model resembling the formation of biofilms in cystic fibrosis patients. The rotating disk reactor consists of a one-liter glass beaker fitted with a drain spout. The bottom of the vessel contains a magnetically driven rotor with six 1.27 cm diameter coupons constructed from polystyrene. The rotor consists of a star-head magnetic stir bar upon which a disk was affixed to hold the coupons. The vessel with the stir bar was placed on a stir plate and rotated to provide fluid shear. A nutrient solution (AB Trace Medium with 0.3 mM glucose, see Table 3 below for composition) was added through a stopper in the top of the reactor at a flow rate of 5 ml/min. The reactor volume was approximately 180 ml and varied slightly between reactors depending on the placement of the drain spout and the rotational speed of the rotor. At a volume of 180 ml, the residence time of the reactors was 36 minutes. The reactors were operated at room temperature (c.a. 26° C.).
For each test, two RDRs were operated in parallel with one receiving test compound and the other serving as an untreated control. The RDRs were sterilized by autoclave, then filled with sterile medium and inoculated with P. aeruginosa strain PAO1. The reactors were then incubated at room temperature in batch mode (no medium flow) for a period of 24 hours, after which the flow was initiated for a further 24 hour incubation. Test compounds were dissolved in 10 ml ethanol to achieve a concentration of 1.8 mg/ml. After the 48 hours of biofilm development described above, the 10 ml of ethanol containing the test compounds were added to the reactor to achieve a final concentration of approximately 50, 100, or 200 μg/ml. Control reactors received 10 ml of ethanol. The reactors were then incubated for an additional 24 hours in batch (no flow) mode. After this incubation period, the six coupons were removed from each reactor and placed in 12-well polystyrene tissue culture plates with wells containing either 2 ml of a 100 μg/ml tobramycin solution or 2 ml of phosphate-buffered saline (PBS). These plates were incubated at room temperature for two hours. The coupons were then rinsed by three transfers to plates containing 2 ml of fresh PBS. For each two RDR reactors run in parallel, four sets of three coupons were obtained: one set with no test compound treatment and no tobramycin treatment, one set with no test compound treatment and tobramycin treatment, one set treated with a test compound treatment and no tobramycin treatment, and one set treated with a test compound treatment and tobramycin. After rinsing, one coupon of each set of three was stained with a LIVE/DEAD® BacLight™ Bacterial Viability Kit (Molecular Probes, Eugene Oreg.) and imaged using epifluorescent microscopy. The remaining two coupons were placed in 10 ml of PBS and sonicated for five minutes to remove and disperse biofilm cells. The resulting bacterial suspensions were then serially diluted in PBS and plated on tryptic soy agar plates for enumeration of culturable bacteria. The plates were incubated for 24 hours at 37° C. before colony forming units (CFU) were determined.
The results are averages from experiments performed on three separate days for each test compound. The values reported are as loglo CFU.

[4] = system: E. coli clinical strain UT189 against bladder epithelial cells; experiment: Binding to and invasion of bladder epithelial cells by E. coli; assay type: cell-based
Experimental: The effect of test compounds on bacterial invasion of E. coli clinical strain UT189 was studied as described in Elsinghorst, et al. 1994, Methods Enzymol, 236:405-420; and Martinez et al., 2000, EMBO J., 19:2803-2812. Epithelial bladder cells were grown in plates. Asiatic acid, corosolic acid, or ursolic acid were added at concentrations of 10 μg/ml, 20 μg/ml, or 40 μg/ml to bacteria and epithelial cells for approximately 5, 15, 30, or 60 minutes with approximately 10^7 CFU of E. coli. Binding was assessed at time zero and invasion was assessed at approximately 5, 15, 30, or 60 minutes from completing the mixture of compound, bacteria, and epithelial cells. As a control ethanol was added to cells to a final concentration of 0.1%. The effect of bacterial viability and bacterial adherence during the infection period was evaluated according to the methods described in Martinez et al., 2000, EMBO J., 19:2803-2812.

[5] = system: E. coli clinical strain UT189; experiment: Inhibition of biofilm formation, crystal violet, 96 well plates; assay type: cell-based; conditions: Escherichia coli; 20 ug/ml; read-out: inhibited biofilm formation of the UT189 strain
Experimental: Biofilm inhibition experiments were conducted using an assay adapted from the reported protocol described in Pratt and Kolter, 1998, Molecular Microbiology, 30: 285-293; Li et al., 2001, J. Bacteriol., 183: 897-908. E. coli clinical strain UT189 was grown in LB in 96 well plates at room temperature for one or two days without shaking. E. coli laboratory strain JM109 was grown in LB plus 0.2% glucose in 96 well plates at room temperature for one day without shaking. To quantify the biofilm mass, the suspension culture was poured out and the biofilm was washed three times with water. The biofilm was stained with 0.1% crystal violet for 20 minutes. The plates were then washed three times with water. OD reading at 540 nm was measured to quantify the biofilm mass at the bottom of the wells. Then 95% ethanol was added to dissolve the dye at the bottom and on the wall and the OD reading at 540 nm was measured to quantify the total biofilm mass. To study the overall effect of the compounds (3.6 mg/mL in 100% ethanol as stock solution), it was added with the inoculation and a time course of biofilm mass was measured. Appropriate amounts of 100% ethanol were added to each sample to eliminate the effect of solvent. Each condition had 3-4 replicates on each plate and was performed over multiple days.

[6] = system: E. coli UT189[pCOMGFP]; experiment: Biofilm pods (IBCs) in bladders of infected mice, intravesical compound, confocal microscopy; assay type: in vivo, Escherichia coli; conditions: vs controls
Experimental: The procedures in this example has been previously reported by Justice, S. et al. Differentiation and development pathways of uropathogenic Escherichia coli in urinary tract pathogenesis. PNAS, 2004, 101(5), p. 1333-1338. Briefly, E. coli UT189[pCOMGFP] was prepared after retrieval from frozen stocks by inoculating appropriately in LB medium statically for approximately 20 hours. Cells were harvested and suspended in 1 ml of PBS. Cells were diluted appropriately to achieve approximately a 10^8 CFU or 10^7 CFU input into C3H/HeN mice (2 mice per group).
Mice were deprived of water for approximately two hours. In experiment 1, all mice were anesthetized with 0.15 cc ketamine cocktail. In experiment 2, all mice were anesthetized with isofluorane. In experiment 1, urine was dispelled from the bladders and approximately 40 μg/ml of test compound or an appropriate amount of ethanol as control was introduced into the bladders via catheterization of the urethra using a tubing coated tuberculin syringe. 30 minutes was allowed to elapse. In experiment 2, bladders were not pre-incubated with test compounds. Bladders were then expelled and an inoculum of 10^8 CFU (Experiment 1) or 10^7 CFU (Experiment 2) of E. coli containing 40 μg/ml of test compound or equivalent amount of ethanol as controls were introduced into the bladders as indicated above.
In experiment 1 five hours elapsed and in experiment 2 six hours elapsed, and then mice were anesthetized and sacrificed appropriately. The bladders were removed, bisected, stretched, and fixed in 3% paraformaldehyde for 1 hour at room temperature. Bladders were then permeabilized in 0.01% Triton/PBS for 10 minutes and counter stained with TOPRO3 (Molecular Probes) for 10 minutes for visualization by confocal microscopy. Bladders were mounted on Prolong antifade (Molecular Probes).

In the case of `C=C1CCC2(C(=O)O)CCC3(C)C(=CCC4C5(C)CCC(O)C(C)(C)C5CCC43C)C2C1C` (centres unmarked) [Pygenic acid B, Pygenic Acid B], the “inhibited biofilm formation of P. aeruginosa PAO1” value [1] is reported as roughly 30% and the “inhibitory effect on the growth of P. aeruginosa PA01” value [1] is reported as “no inhibitory effect”.

For `CC(=O)OC1CCC2(C)C(CCC3(C)C2CC=C2[C@@H]4CC(C)(C)CCC4(C(=O)O)CCC23C)C1(C)C` (some centres unmarked) [3-acetyl oleanolic acid], the “inhibited biofilm formation of P. aeruginosa PAO1” value [1] was roughly 50% and the “inhibitory effect on the growth of P. aeruginosa PA01” value [1] was “no inhibitory effect”.

In the case of Echinocystic Acid, the “inhibited biofilm formation of P. aeruginosa PAO1” value [1] is reported as roughly 25% and the “inhibitory effect on the growth of P. aeruginosa PA01” value [1] is reported as “no inhibitory effect”.

In the case of “3-hydroxy-12,20(30) ursadienoic acid [3-hydroxy-12, 20(30) ursadienoic acid]”, the “inhibited biofilm formation of P. aeruginosa PAO1” value [1] is reported as “about 40%” and the “inhibitory effect on the growth of P. aeruginosa PA01” value [1] is reported as “no inhibitory effect”.

For `CO[C@H]1/C=C/O[C@@]2(C)Oc3c(C)c(O)c4c(O)c(c(/C=N/N5CCN(C)CC5)c(O)c4c3C2=O)NC(=O)/C(C)=C\C=C\[C@H](C)[C@H](O)[C@@H](C)[C@@H](O)[C@@H](C)[C@H](OC(C)=O)[C@@H]1C` [rifampin], the “eradication of methicillin-resistant Staphylococcus aureus in a biofilm” value ([2]; biofilm, urinary catheters) is given as “unable to eradicate” and the “effect against planktonic, or suspended cells” value ([2]; planktonic cells) is given as “effective”.

For `C[C@@H]1CC[C@]2(C(=O)O)CCC3(C)C(=CCC4C5(C)C[C@@H](O)[C@H](O)C(C)(C)C5CCC43C)C2[C@H]1C` (some centres unmarked) [Corosolic acid], the “CFU, Test Compound” value ([3]; test compound 100 μg/ml 24 h, no tobramycin, average of three days) was 7.8 loglo CFU, the “CFU, Tobramycin and Test Compound” value ([3]; test compound 100 μg/ml 24 h, then tobramycin 100 μg/ml 2 h, average of three days) was 5.3 loglo CFU and the “reduced invasion of E. coli into bladder epithelial cells” value (shortened to “reduced invasion”) ([4]; 20 μg/ml, 60 minutes, n=4) was 65%. The “reduced invasion” value ([4]; 40 µg/ml, 5 minutes, triplicate, compared to the controls) was 10%, the “reduced invasion” value ([4]; 40 µg/ml, 15 minutes, triplicate, compared to the controls) was 70% and the “reduced invasion” value ([4]; 40 μg/ml, 60 minutes, separate experiments (n=4 to 7)) was 90%. The “reduced invasion” value ([4]; 40 µg/ml, 60 minutes, triplicate, compared to the controls) was 90%, the inhibition at 20 µg/mL [5] was roughly 85% and the “reduction in biofilm pods or IBCs in the bladders of mice” value ([6]; experiment 1: C3H/HeN mice, 40 μg/ml intravesical with 30 min pre-incubation, 10^8 CFU, five hours) was 94%. For the same molecule, the “reduction in large biofilm pods or large IBCs in the bladders of mice” value ([6]; experiment 2: C3H/HeN mice, 40 μg/ml in inoculum, no pre-incubation, 10^7 CFU, six hours) was roughly 60%.

For `C[C@@H]1CC[C@]2(C(=O)O)CC[C@]3(C)C(=CCC4[C@@]5(C)C[C@@H](O)[C@@H](O)C(C)(C)C5CC[C@]43C)C2[C@H]1C` (some centres unmarked) [Pygenic acid A, Pygenic Acid A], the “inhibited biofilm formation of P. aeruginosa PAO1” value [1] was “about 40%” and the “inhibitory effect on the growth of P. aeruginosa PA01” value [1] was “no inhibitory effect”.

For `NC[C@H]1O[C@H](O[C@H]2[C@H](O)[C@@H](O[C@H]3O[C@H](CO)[C@@H](O)[C@H](N)[C@H]3O)[C@H](N)C[C@@H]2N)[C@H](N)C[C@@H]1O` [Tobramycin, reference compound], the “CFU, Tobramycin” value ([3]; tobramycin 100 μg/ml 2 h, no test compound, parallel reactor of the experiment) was 5.8 loglo CFU and 6.5 loglo CFU and 6.1 loglo CFU and 6.7 loglo CFU and 6.2 loglo CFU.
